PMC8050276, “Estradiol analogs attenuate autophagy, cell migration and invasion by direct and selective inhibition of TRPML1, independent of estrogen receptors” (Scientific Reports, 2021)
Values joined by “and” are separate entries in the source; they are usually repeats but may differ in a detail not shown here. Identical values can stand only once. “Also recorded” adds a separate entry of the source. Like-named read-outs stand apart in the source and are kept apart here.

Assays:
hTRPML1∆NC-YFP [1] = molecular target: T1, hTRPML1∆NC-YFP (Homo sapiens, UniProt Q9GZU1); assay type: cell-based; conditions: for IC50: read-out: TRPML1 IC50, Fluo-4, 5 µM ML-SA1, Fig. 2a/4, Table S1
T1 sequence (Q9GZU1 whole entry): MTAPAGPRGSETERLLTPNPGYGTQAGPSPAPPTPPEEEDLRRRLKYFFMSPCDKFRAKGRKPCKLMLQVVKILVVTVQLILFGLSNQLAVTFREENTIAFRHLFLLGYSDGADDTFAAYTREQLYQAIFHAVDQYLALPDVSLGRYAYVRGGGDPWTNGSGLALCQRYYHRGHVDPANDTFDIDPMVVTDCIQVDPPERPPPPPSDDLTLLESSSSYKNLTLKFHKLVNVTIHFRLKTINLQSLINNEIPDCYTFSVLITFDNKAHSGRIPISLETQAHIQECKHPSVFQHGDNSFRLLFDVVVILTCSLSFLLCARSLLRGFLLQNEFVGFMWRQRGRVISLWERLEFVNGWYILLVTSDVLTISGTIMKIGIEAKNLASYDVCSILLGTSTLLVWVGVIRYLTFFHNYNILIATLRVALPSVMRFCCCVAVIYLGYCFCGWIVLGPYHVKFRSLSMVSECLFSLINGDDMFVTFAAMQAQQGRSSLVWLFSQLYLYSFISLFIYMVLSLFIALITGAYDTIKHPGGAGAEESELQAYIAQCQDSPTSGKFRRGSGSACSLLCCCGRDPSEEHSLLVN
Method: (§1) To identify inhibitors of TRPML1 and TRPML3, the Spectrum Collection compound library (MS Discoveries; 2000 compounds) and additional 430 bioactive compounds were screened. To this end, fluorometric Ca^2+ influx assays were performed by using the calcium dye Fluo-4/AM (Invitrogen, Thermo Fisher Scientific, Waltham, MA, USA) and a custom-made fluorescence imaging plate reader built into a robotic liquid handling station (Freedom Evo 150, Tecan, Männedorf, Switzerland). […] Screening compounds dissolved in DMSO (10 mM) were prediluted in 150 mM NaCl, 20 mM HEPES, pH 7.4, to a concentration of 200 µM. For primary screens, HEK293 stably expressing plasma membrane-targeted TRPML1 or TRPML3 were trypsinized and resuspended in cell culture medium supplemented with 4 µM Fluo-4/AM. After incubation at 37 °C for 30 min, the cell suspension was briefly centrifuged resuspended in HBS, and dispensed into black pigmented, clear-bottom 384-well microwell plates (Greiner μClear, Frickenhausen, Germany). Plates were placed into the FLIPR and fluorescence signals (excitation 470 nm, emission 515 nm) were recorded with a Zyla 5.5 camera (Andor, Belfast, UK) and the μManager software like previously described. In a first video, compound libraries were successively added to the cells with the Tecan 96-tip multichannel arm to a final concentration of 20 µM to map unspecific effects like autofluorescence or toxicity. In a second step the agonist ML-SA1 was pipetted in each well and fluorescence signals were recorded for 10 min. Analyses were done by calculating fluorescence intensities for each well and background areas with ImageJ (National Institutes of Health, Bethesda, MD, USA). Finally, the background was subtracted and the fluorescence intensities were normalized to initial intensities (F/F0). Concentration response curves were generated by the same procedure but compounds were manually prediluted in 96-well plates containing HBS, now supplemented with 0.1% bovine serum albumin. Here data was fitted to a four-parameter Hill equation to obtain Imin, Imax, IC50), and the Hill coefficient n.

hTRPML1∆NC-YFP [2] = assay type: cell-based, human
Method: as §1

hTRPML2-YFP = molecular target: T2, hTRPML2-YFP (Homo sapiens, UniProt Q8IZK6); experiment: Fluo-4 Ca2+ influx assay, HEK293 stably expressing hTRPML2-YFP, activated with ML-SA1; assay type: cell-based
T2 construct: expressed in transfected cells
T2 sequence (Q8IZK6 1-566): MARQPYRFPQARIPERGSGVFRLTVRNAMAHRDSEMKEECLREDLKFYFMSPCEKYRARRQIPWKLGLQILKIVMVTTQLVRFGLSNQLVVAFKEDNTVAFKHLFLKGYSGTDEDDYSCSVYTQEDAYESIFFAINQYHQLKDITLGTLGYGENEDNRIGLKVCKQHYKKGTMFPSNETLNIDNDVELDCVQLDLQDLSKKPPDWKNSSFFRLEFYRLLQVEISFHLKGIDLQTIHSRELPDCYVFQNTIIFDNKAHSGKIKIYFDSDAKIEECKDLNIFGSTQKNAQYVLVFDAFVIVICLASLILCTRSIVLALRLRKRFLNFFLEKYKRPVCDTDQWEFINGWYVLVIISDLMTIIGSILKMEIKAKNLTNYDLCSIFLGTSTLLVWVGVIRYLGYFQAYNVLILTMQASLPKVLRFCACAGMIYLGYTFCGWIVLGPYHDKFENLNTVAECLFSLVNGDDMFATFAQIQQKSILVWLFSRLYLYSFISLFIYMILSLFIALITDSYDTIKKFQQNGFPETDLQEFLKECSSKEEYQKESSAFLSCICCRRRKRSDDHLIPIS

hTRPML3-YFP = molecular target: T3, hTRPML3-YFP (Homo sapiens, UniProt Q8TDD5); experiment: Fluo-4 Ca2+ influx assay, HEK293 stably expressing hTRPML3-YFP, activated with ML-SA1; assay type: cell-based
T3 construct: expressed in transfected cells
T3 sequence (Q8TDD5 whole entry): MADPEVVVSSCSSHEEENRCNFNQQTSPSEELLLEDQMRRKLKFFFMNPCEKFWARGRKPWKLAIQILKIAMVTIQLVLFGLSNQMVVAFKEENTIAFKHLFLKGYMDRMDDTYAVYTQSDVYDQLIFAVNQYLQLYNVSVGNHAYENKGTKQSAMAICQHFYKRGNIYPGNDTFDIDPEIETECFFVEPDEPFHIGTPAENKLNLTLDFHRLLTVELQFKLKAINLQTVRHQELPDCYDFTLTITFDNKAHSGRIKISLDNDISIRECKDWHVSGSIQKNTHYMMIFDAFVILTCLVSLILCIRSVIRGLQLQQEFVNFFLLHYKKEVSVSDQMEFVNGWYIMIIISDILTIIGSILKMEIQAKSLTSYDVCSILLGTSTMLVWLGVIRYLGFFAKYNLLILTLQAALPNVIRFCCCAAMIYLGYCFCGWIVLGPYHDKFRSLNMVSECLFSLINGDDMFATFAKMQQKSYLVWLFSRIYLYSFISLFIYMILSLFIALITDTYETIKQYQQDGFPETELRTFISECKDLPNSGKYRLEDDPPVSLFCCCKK
Method: To identify inhibitors of TRPML1 and TRPML3, the Spectrum Collection compound library (MS Discoveries; 2000 compounds) and additional 430 bioactive compounds were screened. To this end, fluorometric Ca^2+ influx assays were performed by using the calcium dye Fluo-4/AM (Invitrogen, Thermo Fisher Scientific, Waltham, MA, USA) and a custom-made fluorescence imaging plate reader built into a robotic liquid handling station (Freedom Evo 150, Tecan, Männedorf, Switzerland). All measurements were done in a HEPES buffered solution (HBS), containing 132 mM NaCl, 6 mM KCl, 1 mM MgCl2, 1 mM CaCl2, 5.5 mM D-glucose, 10 mM HEPES, pH 7.4. Screening compounds dissolved in DMSO (10 mM) were prediluted in 150 mM NaCl, 20 mM HEPES, pH 7.4, to a concentration of 200 µM. For primary screens, HEK293 stably expressing plasma membrane-targeted TRPML1 or TRPML3 were trypsinized and resuspended in cell culture medium supplemented with 4 µM Fluo-4/AM. After incubation at 37 °C for 30 min, the cell suspension was briefly centrifuged resuspended in HBS, and dispensed into black pigmented, clear-bottom 384-well microwell plates (Greiner μClear, Frickenhausen, Germany). Plates were placed into the FLIPR and fluorescence signals (excitation 470 nm, emission 515 nm) were recorded with a Zyla 5.5 camera (Andor, Belfast, UK) and the μManager software like previously described. In a first video, compound libraries were successively added to the cells with the Tecan 96-tip multichannel arm to a final concentration of 20 µM to map unspecific effects like autofluorescence or toxicity. In a second step the agonist ML-SA1 was pipetted in each well and fluorescence signals were recorded for 10 min. Analyses were done by calculating fluorescence intensities for each well and background areas with ImageJ (National Institutes of Health, Bethesda, MD, USA). Finally, the background was subtracted and the fluorescence intensities were normalized to initial intensities (F/F0). Concentration response curves were generated by the same procedure but compounds were manually prediluted in 96-well plates containing HBS, now supplemented with 0.1% bovine serum albumin. Here data was fitted to a four-parameter Hill equation to obtain Imin, Imax, IC50), and the Hill coefficient n.

LC3 = experiment: Autophagy assay, LC3 immunoblot in human fibroblasts (Fed/Hbss, with bafilomycin A1); assay type: cell-based; conditions: Hbss starvation, with BafA1
Method: 5 × 10^4 wild-type human fibroblasts were seeded in a 12-well plate and treated overnight with DMSO or different TRPML1 inhibitors (EDME, PRU-10, PRU-12). The day after, cells were treated for 3 h in full media (Fed) or HBSS supplemented with 10 mM HEPES (nutrient starved) in presence of DMSO or different TRPML1 inhibitors (EDME, PRU-10, PRU-12). For autophagic flux experiments, cells were co-treated with 100 nM of bafilomycin A1 (Sigma).
Total cell lysates were prepared using TRIS HCl 10 mM pH 8.0 and 0.2% SDS supplemented with protein and phosphatase inhibitors (Sigma). Protein concentration was determined using the Bradford method. After SDS–polyacrylamide gel electrophoresis (PAGE) and immunoblotting, the protein recognized by the specific antibody was visualized by chemiluminescence methods (Luminata Crescendo Western HRP substrate, Millipore) using HRP-conjugated anti-rabbit or anti-mouse secondary antibodies (Cell Signalling). Images were acquired using Li-Cor Odyssey Fc Imaging System and densitometric quantification of unsaturated images was performed using ImageJ software (NIH). Uncropped and unprocessed western blot scans are provided as Fig. S1. The following primary antibodies were used: LC3 (Novus Cat. No. NB100-2220, 1:1000 in 5% milk), TFEB (Cell Signaling Cat. No. 4240, 1:1000 in 5% BSA) and β-actin (Santa Cruz Cat. No. Sc-47778, 1: 1000 in 5% BSA).

human ERα = molecular target: T4, human ERα (Homo sapiens, UniProt P03372); experiment: Yeast estrogen receptor assay (YES-assay), Saccharomyces cerevisiae transfected with human ERα, lacZ reporter; assay type: cell-based; conditions: 0.01-100 µM, 48 h
T4 construct: host or cells: Saccharomyces cerevisiae
T4 sequence (P03372 whole entry): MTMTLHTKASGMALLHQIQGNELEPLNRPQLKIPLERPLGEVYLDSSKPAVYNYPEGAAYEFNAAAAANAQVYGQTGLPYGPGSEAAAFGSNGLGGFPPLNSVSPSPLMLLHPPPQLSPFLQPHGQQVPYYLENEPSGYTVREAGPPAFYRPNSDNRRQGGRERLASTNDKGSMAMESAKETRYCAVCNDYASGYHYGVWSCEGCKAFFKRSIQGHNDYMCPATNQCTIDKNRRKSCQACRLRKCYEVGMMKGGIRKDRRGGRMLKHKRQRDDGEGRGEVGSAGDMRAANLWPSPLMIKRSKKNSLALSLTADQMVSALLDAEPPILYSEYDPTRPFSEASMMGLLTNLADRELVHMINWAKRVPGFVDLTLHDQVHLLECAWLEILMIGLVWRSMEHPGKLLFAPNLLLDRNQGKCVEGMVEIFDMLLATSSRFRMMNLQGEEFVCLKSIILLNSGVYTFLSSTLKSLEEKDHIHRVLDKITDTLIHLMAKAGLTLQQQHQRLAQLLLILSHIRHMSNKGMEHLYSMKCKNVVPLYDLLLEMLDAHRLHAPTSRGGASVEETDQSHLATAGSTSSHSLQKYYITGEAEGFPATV
Method: The yeast estrogen receptor assay (YES-assay) was provided by Dr. J.P. Sumpter (Brunel University, Uxbridge, UK; Routledge & Sumpter, 1996) and was used to determine the relative transactivation activity of the human ERα in response to test substances as previously described. Briefly, Saccharomyces cerevisiae stably transfected with a human ERα construct and an estrogen responsive element fused to the reporter gene lacZ encoding for β-galactosidase were treated with the test substances for 48 h. The β-galactosidase enzymatic activity was measured in a colorimetric assay using the substrate chlorophenol red β-D-galactopyranoside (Roche Diagnostics, Mannheim Germany). Formation of chlorophenol red was measured at 540 nm. For the test, all compounds were diluted in DMSO. 17β-estradiol (10 nM; Sigma, Deisenhofen, Germany) served as positive control and DMSO was used as vehicle control. All compounds, were dose dependently tested in a concentration range of 0.01–100 µM, using technical quadruplicates and biological triplicates.

hTRPML1∆NC-YFP [3] = molecular target: T1, hTRPML1∆NC-YFP; conditions: 10 µM compound after 10 µM ML-SA1
Method: Single cell Ca^2+ imaging experiments were performed using Fura-2 as previously described. HEK293 cells stably expressing hTRPML1∆NC-YFP, hTRPML2-YFP, hTPPML3-YFP or hTPC2L11A/L12A-RFP (22, 24) were cultured at 37 °C with 5% of CO2 in Dulbecco’s modified Eagle medium (Thermo Fisher), supplemented with 10% fetal bovine serum, 100 U/mL penicillin, and 0.1 mg/mL streptomycin. Cells were plated onto poly-L-lysine (sigma)-coated glass coverslips and grown for 2–3 days. For Ca^2+ imaging experiments cells were loaded for 1 h at room temperature with Fura-2 AM (4.0 µM) and 0.005% (v/v) pluronic acid (both from Thermo Fisher) in HEPES-buffered solution (HBS) comprising 138 mM NaCl, 6 mM KCl, 2 mM MgCl2, 2 mM CaCl2, 10 mM HEPES, and 5.5 mM D-glucose (adjusted to pH 7.4 with NaOH). After loading, cells were washed with HBS and mounted in an imaging chamber. All recordings were performed in HBS. Ca^2+ imaging was performed using a Leica DMi8 live cell microscope. Fura-2 was excited at 340 nm/380 nm. Emitted fluorescence was captured using 515 nm long-pass filter. Compounds were pre diluted in DMSO and stored as 10 mM stock solutions at − 20 °C, not exceeding three months. Working solutions were prepared directly before using by dilution with HBS.

[4] = TRPML2 IC50, Fluo-4, 5 µM ML-SA1, Table S1
[5] = Fluo-4, 5 µM ML-SA1, Table S1, read-out: TRPML3 IC50

C[C@]12CC[C@@H]3c4ccc(O)cc4CC[C@H]3[C@@H]1CC[C@@H]2O [Estradiol, 17β-estradiol]
IC50 (hTRPML1∆NC-YFP [1]): 5.3 µM
TRPML1 versus TRPML3 selectivity (hTRPML1∆NC-YFP [2]; Fluo-4, TRPML1 vs TRPML3, 5 µM ML-SA1): stronger inhibitory effects on TRPML1 than on TRPML3
TRPML1:TRPML2 fold selectivity (hTRPML1∆NC-YFP [2]; ratio of Fluo-4 IC50 values): 5.77 fold
IC50 (hTRPML2-YFP; [4]): 30.4 µM
IC50 (hTRPML3-YFP; [5]): > 50 µM
concentration showing efficacy on autophagy (LC3) (LC3): 10 µM
effect on autophagy (LC3) at 10 nM or 1 µM (LC3): no effect

C[C@]12CC[C@@H]3c4ccc(Oc5ccccc5)cc4CC[C@H]3[C@@H]1CC[C@@H]2O [PRU-8]
IC50 (hTRPML1∆NC-YFP [1]): 0.72 µM
TRPML isoform selectivity profile (hTRPML1∆NC-YFP [2]; TRPML1, 2, 3 and TPC2, Fluo-4): further improved selectivity profile compared to EDME; also recorded: very good selectivity profile
TRPML1:TRPML2 fold selectivity (hTRPML1∆NC-YFP [2]; ratio of Fluo-4 IC50 values): 21.28 fold
TRPML1:TRPML3 fold selectivity (hTRPML1∆NC-YFP [2]; ratio of Fluo-4 IC50 values): 53.68 fold
IC50 (hTRPML2-YFP; [4]): 15.3 µM
IC50 (hTRPML3-YFP; [5]): 38.6 µM
effect/efficacy at ERα (human ERα): strong effect

COc1ccc2c(c1)CC[C@@H]1[C@@H]2CC[C@]2(C)[C@H](O)CC[C@@H]12 [PRU-2]
activity in concentration-response measurements on TRPML1 (hTRPML1∆NC-YFP [1]; Fluo-4, 5 µM ML-SA1): only poor activity
IC50 (hTRPML1∆NC-YFP [1]): 13.8 µM and 14 µM
TRPML1:TRPML2 fold selectivity (hTRPML1∆NC-YFP [2]; ratio of Fluo-4 IC50 values): 2.67 fold
IC50 (hTRPML2-YFP; Fluo-4, 5 µM ML-SA1, Table S1, read-out: TRPML2 IC50): 37 µM
IC50 (hTRPML3-YFP): > 50 µM
efficacy in blocking TRPML1, Fura-2 (hTRPML1∆NC-YFP [3]): exception
effect/efficacy at ERα (human ERα): relatively low efficacy; also recorded: weakest effects
